Results published in ChEMBL document CHEMBL5653615 (J Biol Chem, 2013).
Blank lines part the entries; values can stand above or below the compound they belong to.

What was measured:
[1] = target: T1, Dual serine/threonine and tyrosine protein kinase (Homo sapiens) (UniProt Q6XUX3); assay: Inhibition of human RIPK5 at 500 nM by HotSpot assay relative to control
T1 sequence (whole entry): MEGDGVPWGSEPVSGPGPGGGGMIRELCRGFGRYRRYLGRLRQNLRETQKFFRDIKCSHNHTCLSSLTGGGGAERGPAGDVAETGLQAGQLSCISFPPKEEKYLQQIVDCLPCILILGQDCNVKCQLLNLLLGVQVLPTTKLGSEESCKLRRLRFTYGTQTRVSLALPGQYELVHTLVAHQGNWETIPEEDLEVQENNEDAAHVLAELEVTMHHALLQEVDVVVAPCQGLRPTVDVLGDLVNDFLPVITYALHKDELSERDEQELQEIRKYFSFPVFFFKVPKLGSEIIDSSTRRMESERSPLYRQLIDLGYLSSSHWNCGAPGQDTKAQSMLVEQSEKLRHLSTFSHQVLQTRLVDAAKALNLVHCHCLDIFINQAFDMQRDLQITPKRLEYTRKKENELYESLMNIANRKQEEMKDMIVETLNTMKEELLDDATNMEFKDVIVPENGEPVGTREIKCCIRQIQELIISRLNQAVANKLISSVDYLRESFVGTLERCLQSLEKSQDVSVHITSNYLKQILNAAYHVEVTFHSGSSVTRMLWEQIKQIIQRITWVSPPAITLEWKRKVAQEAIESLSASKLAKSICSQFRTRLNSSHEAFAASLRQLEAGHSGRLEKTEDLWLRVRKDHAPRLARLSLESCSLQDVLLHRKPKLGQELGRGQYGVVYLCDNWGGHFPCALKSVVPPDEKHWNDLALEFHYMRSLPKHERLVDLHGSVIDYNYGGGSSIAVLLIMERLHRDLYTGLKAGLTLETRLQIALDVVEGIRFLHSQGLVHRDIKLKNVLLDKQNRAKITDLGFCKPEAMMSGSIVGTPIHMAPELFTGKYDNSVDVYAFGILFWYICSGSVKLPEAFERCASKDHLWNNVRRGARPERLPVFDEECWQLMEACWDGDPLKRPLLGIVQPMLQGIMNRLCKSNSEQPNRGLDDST

[2] = target: Wee1-like protein kinase (Homo sapiens) (UniProt P30291); assay: Inhibition of human WEE1 at 18.6 nM by HotSpot assay relative to control
Wee1-like protein kinase (Homo sapiens), sequence (P30291 whole entry, looked up): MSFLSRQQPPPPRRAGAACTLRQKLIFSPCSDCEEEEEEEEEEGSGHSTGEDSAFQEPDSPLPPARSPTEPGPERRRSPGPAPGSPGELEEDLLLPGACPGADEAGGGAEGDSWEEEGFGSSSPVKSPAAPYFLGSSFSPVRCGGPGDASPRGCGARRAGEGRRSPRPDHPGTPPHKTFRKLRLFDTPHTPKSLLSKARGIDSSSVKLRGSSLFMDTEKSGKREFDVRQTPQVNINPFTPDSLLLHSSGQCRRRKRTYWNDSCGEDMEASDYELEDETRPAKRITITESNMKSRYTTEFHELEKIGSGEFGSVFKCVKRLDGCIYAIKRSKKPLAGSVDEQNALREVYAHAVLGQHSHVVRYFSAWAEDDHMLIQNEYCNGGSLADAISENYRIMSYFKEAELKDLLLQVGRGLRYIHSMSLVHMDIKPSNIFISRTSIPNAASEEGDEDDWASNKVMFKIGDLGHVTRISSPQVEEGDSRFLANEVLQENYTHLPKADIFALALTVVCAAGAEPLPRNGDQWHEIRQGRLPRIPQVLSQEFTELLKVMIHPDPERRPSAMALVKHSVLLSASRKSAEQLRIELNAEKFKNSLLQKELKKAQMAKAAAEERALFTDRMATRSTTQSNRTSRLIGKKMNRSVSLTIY

[3] = target: Tyrosine-protein kinase Lyn (Homo sapiens) (UniProt P07948); assay: Inhibition of human LYN at 18.6 nM by HotSpot assay relative to control
Tyrosine-protein kinase Lyn (Homo sapiens), sequence (P07948 2-512 limits assumed): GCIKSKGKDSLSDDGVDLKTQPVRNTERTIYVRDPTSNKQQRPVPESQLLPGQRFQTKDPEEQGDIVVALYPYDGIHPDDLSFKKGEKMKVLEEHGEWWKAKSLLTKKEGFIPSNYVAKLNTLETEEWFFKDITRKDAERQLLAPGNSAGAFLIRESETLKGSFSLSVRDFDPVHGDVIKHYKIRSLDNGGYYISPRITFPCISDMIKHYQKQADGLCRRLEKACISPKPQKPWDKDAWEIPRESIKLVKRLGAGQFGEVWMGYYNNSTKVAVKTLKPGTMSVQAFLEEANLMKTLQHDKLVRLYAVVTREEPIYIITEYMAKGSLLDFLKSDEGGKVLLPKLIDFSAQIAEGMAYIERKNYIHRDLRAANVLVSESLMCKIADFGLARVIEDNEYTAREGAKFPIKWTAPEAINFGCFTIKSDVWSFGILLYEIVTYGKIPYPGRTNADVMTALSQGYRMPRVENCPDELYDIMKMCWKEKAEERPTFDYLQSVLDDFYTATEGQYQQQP

[4] = target: Protein kinase C eta type (Homo sapiens) (UniProt P24723); assay: Inhibition of human PKCeta at 18.6 nM by HotSpot assay relative to control
Protein kinase C eta type (Homo sapiens), sequence (P24723 whole entry): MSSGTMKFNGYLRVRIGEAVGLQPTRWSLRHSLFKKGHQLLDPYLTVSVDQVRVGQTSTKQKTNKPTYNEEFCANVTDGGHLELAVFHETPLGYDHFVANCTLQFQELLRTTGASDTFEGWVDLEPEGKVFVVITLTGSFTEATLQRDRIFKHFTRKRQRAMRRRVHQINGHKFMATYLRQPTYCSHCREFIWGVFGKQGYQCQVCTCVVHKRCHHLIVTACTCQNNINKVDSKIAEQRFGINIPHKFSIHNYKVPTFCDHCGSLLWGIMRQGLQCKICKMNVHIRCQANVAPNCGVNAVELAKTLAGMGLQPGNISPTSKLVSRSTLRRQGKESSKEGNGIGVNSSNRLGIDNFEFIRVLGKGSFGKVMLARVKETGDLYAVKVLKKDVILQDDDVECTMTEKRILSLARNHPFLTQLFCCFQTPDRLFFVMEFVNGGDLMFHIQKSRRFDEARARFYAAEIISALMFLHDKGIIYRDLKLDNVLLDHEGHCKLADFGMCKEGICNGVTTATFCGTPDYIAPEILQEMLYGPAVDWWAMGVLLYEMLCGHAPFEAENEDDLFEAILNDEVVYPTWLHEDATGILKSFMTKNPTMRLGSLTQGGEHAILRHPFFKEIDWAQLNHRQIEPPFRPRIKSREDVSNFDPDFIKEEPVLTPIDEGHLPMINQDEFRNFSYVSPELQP

[5] = target: Cyclin-dependent kinase 1/cyclin B1 (Homo sapiens) (UniProt P06493+P14635); assay: Inhibition of human CDK1/cyclin B at 18.6 nM by HotSpot assay relative to control; type: protein-complex assay
Cyclin-dependent kinase 1/cyclin B1 (Homo sapiens), sequence (P06493 whole entry, looked up): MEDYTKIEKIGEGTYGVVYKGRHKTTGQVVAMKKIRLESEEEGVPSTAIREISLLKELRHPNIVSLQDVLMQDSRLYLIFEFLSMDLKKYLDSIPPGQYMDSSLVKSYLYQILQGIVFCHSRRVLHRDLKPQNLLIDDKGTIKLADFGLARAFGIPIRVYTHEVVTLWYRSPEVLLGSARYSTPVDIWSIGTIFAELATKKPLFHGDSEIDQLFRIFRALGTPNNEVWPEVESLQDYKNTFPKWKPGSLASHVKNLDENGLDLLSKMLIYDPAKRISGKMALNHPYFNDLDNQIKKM
Cyclin-dependent kinase 1/cyclin B1 (Homo sapiens), sequence (P14635 whole entry, looked up): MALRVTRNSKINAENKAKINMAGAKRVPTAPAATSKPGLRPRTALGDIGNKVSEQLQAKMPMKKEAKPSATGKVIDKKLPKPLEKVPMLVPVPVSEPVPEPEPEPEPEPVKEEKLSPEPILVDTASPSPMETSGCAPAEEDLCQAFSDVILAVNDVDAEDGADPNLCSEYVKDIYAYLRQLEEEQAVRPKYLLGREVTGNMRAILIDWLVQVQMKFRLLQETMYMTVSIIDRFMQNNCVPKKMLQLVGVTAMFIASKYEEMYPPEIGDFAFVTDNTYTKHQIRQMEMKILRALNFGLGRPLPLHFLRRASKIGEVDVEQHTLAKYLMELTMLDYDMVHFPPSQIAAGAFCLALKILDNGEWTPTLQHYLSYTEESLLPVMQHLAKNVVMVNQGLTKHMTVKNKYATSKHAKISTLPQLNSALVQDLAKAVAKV

[6] = target: Ephrin type-A receptor 7 (Homo sapiens) (UniProt Q15375); assay: Inhibition of human EPHA7 at 18.6 nM by HotSpot assay relative to control
Ephrin type-A receptor 7 (Homo sapiens), sequence (Q15375 28-998 limits assumed): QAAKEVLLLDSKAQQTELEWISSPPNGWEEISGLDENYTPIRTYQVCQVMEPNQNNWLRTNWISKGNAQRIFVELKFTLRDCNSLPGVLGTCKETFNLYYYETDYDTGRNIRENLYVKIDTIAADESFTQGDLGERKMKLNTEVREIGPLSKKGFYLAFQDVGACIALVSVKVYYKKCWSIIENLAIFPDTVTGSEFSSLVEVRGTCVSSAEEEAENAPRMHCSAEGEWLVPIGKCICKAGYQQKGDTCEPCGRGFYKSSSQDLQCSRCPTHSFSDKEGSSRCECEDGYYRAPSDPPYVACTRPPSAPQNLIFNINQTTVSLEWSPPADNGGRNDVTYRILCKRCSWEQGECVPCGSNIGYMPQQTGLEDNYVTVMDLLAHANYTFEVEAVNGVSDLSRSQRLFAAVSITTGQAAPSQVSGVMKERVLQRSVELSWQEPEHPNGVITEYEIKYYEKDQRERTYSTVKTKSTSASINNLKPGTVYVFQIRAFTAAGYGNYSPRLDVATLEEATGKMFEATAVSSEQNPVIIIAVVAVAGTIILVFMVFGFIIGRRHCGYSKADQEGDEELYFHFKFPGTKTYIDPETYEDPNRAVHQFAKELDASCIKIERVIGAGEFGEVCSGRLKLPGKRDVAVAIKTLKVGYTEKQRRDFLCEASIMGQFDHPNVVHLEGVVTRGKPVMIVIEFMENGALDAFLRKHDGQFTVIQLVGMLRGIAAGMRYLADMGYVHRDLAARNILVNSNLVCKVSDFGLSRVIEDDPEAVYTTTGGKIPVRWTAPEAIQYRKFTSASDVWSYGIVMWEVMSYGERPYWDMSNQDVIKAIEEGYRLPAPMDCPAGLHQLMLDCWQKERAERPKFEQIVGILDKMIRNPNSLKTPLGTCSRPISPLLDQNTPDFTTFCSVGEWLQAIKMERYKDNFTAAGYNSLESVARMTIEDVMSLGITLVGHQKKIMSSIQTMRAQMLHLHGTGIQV

[7] = target: T2, Serine/threonine-protein kinase Sgk2 (Homo sapiens) (UniProt Q9HBY8); assay: Inhibition of human SGK2 at 18.6 nM by HotSpot assay relative to control
T2 sequence (whole entry): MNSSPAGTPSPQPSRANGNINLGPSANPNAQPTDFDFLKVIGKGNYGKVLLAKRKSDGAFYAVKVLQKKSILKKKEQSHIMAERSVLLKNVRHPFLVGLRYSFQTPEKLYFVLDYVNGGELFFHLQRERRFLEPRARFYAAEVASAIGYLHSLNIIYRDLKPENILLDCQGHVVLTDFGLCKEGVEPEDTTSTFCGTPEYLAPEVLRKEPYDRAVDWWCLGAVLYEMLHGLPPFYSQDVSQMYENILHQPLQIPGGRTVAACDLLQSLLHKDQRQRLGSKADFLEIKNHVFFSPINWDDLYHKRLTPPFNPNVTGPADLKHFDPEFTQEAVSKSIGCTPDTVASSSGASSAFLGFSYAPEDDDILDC

[8] = target: Maternal embryonic leucine zipper kinase (Homo sapiens) (UniProt Q14680); assay: Inhibition of human MELK at 18.6 nM by HotSpot assay relative to control
Maternal embryonic leucine zipper kinase (Homo sapiens), sequence (Q14680 whole entry, looked up): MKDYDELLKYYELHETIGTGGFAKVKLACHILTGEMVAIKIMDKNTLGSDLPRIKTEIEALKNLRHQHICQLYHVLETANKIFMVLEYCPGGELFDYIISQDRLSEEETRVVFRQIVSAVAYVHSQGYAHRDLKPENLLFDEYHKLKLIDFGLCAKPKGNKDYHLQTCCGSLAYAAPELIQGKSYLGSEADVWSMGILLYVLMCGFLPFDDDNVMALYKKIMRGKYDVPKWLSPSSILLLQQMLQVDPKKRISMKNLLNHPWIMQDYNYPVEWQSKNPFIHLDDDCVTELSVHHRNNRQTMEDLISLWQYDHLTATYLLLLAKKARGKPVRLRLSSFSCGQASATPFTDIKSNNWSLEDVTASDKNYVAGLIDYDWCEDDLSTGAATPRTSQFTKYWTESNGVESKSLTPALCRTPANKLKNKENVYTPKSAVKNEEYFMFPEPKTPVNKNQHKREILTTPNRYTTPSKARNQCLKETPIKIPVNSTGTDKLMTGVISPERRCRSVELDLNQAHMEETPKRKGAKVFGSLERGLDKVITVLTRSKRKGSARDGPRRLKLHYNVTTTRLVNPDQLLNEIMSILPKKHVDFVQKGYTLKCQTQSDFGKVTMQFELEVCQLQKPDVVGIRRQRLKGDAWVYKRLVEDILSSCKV

[9] = target: T3, Muscle, skeletal receptor tyrosine-protein kinase (Homo sapiens) (UniProt O15146); assay: Inhibition of human MUSK at 1.82 nM by HotSpot assay relative to control
T3 sequence (whole entry): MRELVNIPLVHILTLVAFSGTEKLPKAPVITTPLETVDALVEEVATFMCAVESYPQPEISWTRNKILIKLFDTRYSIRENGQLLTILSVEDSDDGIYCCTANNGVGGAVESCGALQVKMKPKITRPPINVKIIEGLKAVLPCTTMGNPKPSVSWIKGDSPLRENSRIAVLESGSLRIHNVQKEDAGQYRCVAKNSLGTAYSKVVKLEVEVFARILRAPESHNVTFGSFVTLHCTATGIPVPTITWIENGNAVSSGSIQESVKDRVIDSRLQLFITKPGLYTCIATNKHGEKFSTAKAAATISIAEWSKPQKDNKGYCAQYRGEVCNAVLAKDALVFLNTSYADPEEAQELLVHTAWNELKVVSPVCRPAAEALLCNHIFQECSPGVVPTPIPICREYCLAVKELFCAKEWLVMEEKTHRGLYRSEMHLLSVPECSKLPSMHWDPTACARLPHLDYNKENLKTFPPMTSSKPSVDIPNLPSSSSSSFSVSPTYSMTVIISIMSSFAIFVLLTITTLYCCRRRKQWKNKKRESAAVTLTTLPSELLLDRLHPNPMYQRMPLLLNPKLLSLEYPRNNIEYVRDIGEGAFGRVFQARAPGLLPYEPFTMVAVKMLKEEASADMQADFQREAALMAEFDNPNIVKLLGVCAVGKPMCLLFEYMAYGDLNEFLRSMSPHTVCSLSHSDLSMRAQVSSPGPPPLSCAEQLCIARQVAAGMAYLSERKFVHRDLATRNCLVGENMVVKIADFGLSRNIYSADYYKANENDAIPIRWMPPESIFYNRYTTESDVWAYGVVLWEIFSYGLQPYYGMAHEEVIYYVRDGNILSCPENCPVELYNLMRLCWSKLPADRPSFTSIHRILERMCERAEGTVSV

SMILES: Nc1n[nH]c2nnc(-c3c(-c4ccccc4)nn4ccccc34)cc12
inhibition [1]: 4.06%

inhibition [2]: 7.34%
inhibition [3]: -0.99%
inhibition [4]: 1.29%
inhibition [5]: 1.65%
inhibition [6]: 2.17%
inhibition [7]: -3.95%
inhibition [8]: -2.08%
SMILES: C[C@]1(O)C[C@@H](c2nc(-c3ccc4ccc(-c5ccccc5)nc4c3)c3c(N)nccn32)C1

inhibition [9]: -0.39%
SMILES: C[C@@]1(C(=O)Nc2ccc(F)nc2)CCCN1c1nc(Nc2cc(C3CC3)n[nH]2)c2cccn2n1
